{"source": "the supplement of paper PMC11208160"}
{"assay": "recombinant barcode read abundance after kanamycin selection (control-corrected) (log10(CPM+1)); higher = more efficient recombination; sequences stand for … in AGTGCAGAGAAAATCGGCCAGTTTTCTCTGCCTGCAGTCCGCATGCCGT…AGATTTATGCAGCGGACTGCCTTTCTCCCAAAGTGATAAACCGGACAGTATCATGGACCGGTTTTCCCGGTAATCCGTATTTGCAAGGTTGGTTTCACT; site = the 11-nt target", "outline": "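A vector carrying a T7-inducible recombinase and the last 73 bp of the bridge RNA received, by Gibson cloning, oligos encoding a promoter, target, barcode and the first 104 bridge RNA bases under J23119. The pooled constructs entered E. coli together with a donor plasmid by electroporation. Selection used chloramphenicol/ampicillin/kanamycin with 0.1 mM IPTG, with chloramphenicol/ampicillin LB agar as the control, each in two replicates. Recombination efficiency is the averaged, control-corrected counts-per-million of barcodes at recombinant junctions, reported as log10(CPM+1).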"}
{"sequence": "CACGCATCTTGGGTTCTAACCTGTTGCCT (site CACCAATCTAG)", "recombinant barcode read abundance (log10)": 0.211}
{"sequence": "ACAAGGGCTTGGGTTCTAACCTGTTGCTG (site ACAAGGGCTCA)", "recombinant barcode read abundance (log10)": 2.06}
{"sequence": "TCTGGGGCTTGGGTTCTAACCTGTTGCTG (site TCTGGGGCTCT)", "recombinant barcode read abundance (log10)": 0.936}
{"sequence": "GGTGGGACTTGGGTTCTAACCTGTTGCAC (site GGTGGGACTGT)", "recombinant barcode read abundance (log10)": 1.95}
{"sequence": "AGGGAATCTTGGGTTCTAACCTGTTGCCT (site AGCGAATCTAG)", "recombinant barcode read abundance (log10)": 0.124}
{"sequence": "TTGAAATCTTGGGTTCTAACCTGTTGCCT (site TTGATATCTAG)", "recombinant barcode read abundance (log10)": 0.0563}
{"sequence": "GAGCGCTCTTGGGTTCTAACCTGTTGCCG (site GAGCGCTCTCG)", "recombinant barcode read abundance (log10)": 0.754}
{"sequence": "ACATACCCTTGGGTTCTAACCTGTTGCTG (site CTTCGAACTAT)", "recombinant barcode read abundance (log10)": 0.142}
{"sequence": "GTCAATCCTTGGGTTCTAACCTGTTGCGT (site GTCAATCCTAC)", "recombinant barcode read abundance (log10)": 1.98}
{"sequence": "CGGGCCTCTTGGGTTCTAACCTGTTGCTA (site CGGGCCTCTGA)", "recombinant barcode read abundance (log10)": 1.27}
{"sequence": "GCGAGCCCTTGGGTTCTAACCTGTTGCGT (site GCTAGCCCTCC)", "recombinant barcode read abundance (log10)": 0.0583}
{"sequence": "CTACGAACTTGGGTTCTAACCTGTTGCTG (site CTACGGACTCA)", "recombinant barcode read abundance (log10)": 0.102}
{"sequence": "GTTTACGCTTGGGTTCTAACCTGTTGCCT (site GTTTACGCTAG)", "recombinant barcode read abundance (log10)": 1.96}
{"sequence": "CCTATGTCTTGGGTTCTAACCTGTTGCTA (site CCTATGTCTTA)", "recombinant barcode read abundance (log10)": 0.528}
{"sequence": "ACCGCGTCTTGGGTTCTAACCTGTTGCAT (site ACCGCGTCTAT)", "recombinant barcode read abundance (log10)": 0.521}
{"sequence": "GGCAGCTCTTGGGTTCTAACCTGTTGCTT (site GGCAGCTCTAA)", "recombinant barcode read abundance (log10)": 0.281}
{"sequence": "CTACTAACTTGGGTTCTAACCTGTTGCAT (site CTACTAACTAC)", "recombinant barcode read abundance (log10)": 0.149}
{"sequence": "TTCTGAGCTTGGGTTCTAACCTGTTGCCT (site TTCTGCGCTAG)", "recombinant barcode read abundance (log10)": 0.0635}
{"sequence": "CTAGACTCTTGGGTTCTAACCTGTTGCTG (site CTAGACTCTCA)", "recombinant barcode read abundance (log10)": 2.73}
{"sequence": "TCGAAACCTTGGGTTCTAACCTGTTGCCT (site TCGAAGCCTAG)", "recombinant barcode read abundance (log10)": 0.132}
{"sequence": "ACAACGACTTGGGTTCTAACCTGTTGCCT (site ACAACCACTAG)", "recombinant barcode read abundance (log10)": 0.0471}
{"sequence": "GAAGCGCCTTGGGTTCTAACCTGTTGCCT (site GAAGCGCCTAG)", "recombinant barcode read abundance (log10)": 1.42}
{"sequence": "TAGAACTCTTGGGTTCTAACCTGTTGCCT (site TAGAACTCTTG)", "recombinant barcode read abundance (log10)": 0.119}
{"sequence": "CTATCGACTTGGGTTCTAACCTGTTGCCT (site CTATCGACTAG)", "recombinant barcode read abundance (log10)": 0.766}
{"sequence": "AGGGTGCCTTGGGTTCTAACCTGTTGCTA (site AGGGTGCCTTA)", "recombinant barcode read abundance (log10)": 2.11}
{"sequence": "TCAAACCCTTGGGTTCTAACCTGTTGCGG (site TCCAACCCTCC)", "recombinant barcode read abundance (log10)": 0.292}
{"sequence": "TAGCACACTTGGGTTCTAACCTGTTGCGG (site TAGCACACTCC)", "recombinant barcode read abundance (log10)": 1.21}
{"sequence": "CCGATCCCTTGGGTTCTAACCTGTTGCCT (site CGGATCCCTAG)", "recombinant barcode read abundance (log10)": 0.213}
{"sequence": "GGTTGACCTTGGGTTCTAACCTGTTGCAT (site GGTTCACCTCT)", "recombinant barcode read abundance (log10)": 0.226}
{"sequence": "AGGGAAGCTTGGGTTCTAACCTGTTGCCT (site AGGGGAGCTAG)", "recombinant barcode read abundance (log10)": 0.768}
{"sequence": "CCTGGGACTTGGGTTCTAACCTGTTGCGT (site CCTGGGACTGC)", "recombinant barcode read abundance (log10)": 0.178}
{"sequence": "TATTATACTTGGGTTCTAACCTGTTGCGT (site TATTATACTAA)", "recombinant barcode read abundance (log10)": 0.116}
{"sequence": "CTCGAATCTTGGGTTCTAACCTGTTGCTA (site CTCGAACCTCA)", "recombinant barcode read abundance (log10)": 0.175}
{"sequence": "GACATATCTTGGGTTCTAACCTGTTGCCA (site GACATATCTTG)", "recombinant barcode read abundance (log10)": 0.204}
{"sequence": "GTCGTCGCTTGGGTTCTAACCTGTTGCCT (site GTCGTCCCTAG)", "recombinant barcode read abundance (log10)": 0.0726}
{"sequence": "AAGCACTCTTGGGTTCTAACCTGTTGCCT (site AAGCAATCTAG)", "recombinant barcode read abundance (log10)": 0.195}
{"sequence": "AGGAGTACTTGGGTTCTAACCTGTTGCTT (site AGGAGTACTAA)", "recombinant barcode read abundance (log10)": 0.761}
{"sequence": "AAGTCGTCTTGGGTTCTAACCTGTTGCCT (site AAGTCGTCTAG)", "recombinant barcode read abundance (log10)": 0.832}
{"sequence": "CTAAGCTCTTGGGTTCTAACCTGTTGCTC (site CTAAGCTCTAA)", "recombinant barcode read abundance (log10)": 0.537}
{"sequence": "TACGCTCCTTGGGTTCTAACCTGTTGCTT (site TACGCTCCTAT)", "recombinant barcode read abundance (log10)": 0.017}
{"sequence": "CTCATGTCTTGGGTTCTAACCTGTTGCTT (site TTCATGTCTAA)", "recombinant barcode read abundance (log10)": 0.222}
{"sequence": "GCCAACCCTTGGGTTCTAACCTGTTGCGT (site GCCAACCCTAC)", "recombinant barcode read abundance (log10)": 0.276}
{"sequence": "GGTTCCTCTTGGGTTCTAACCTGTTGCGG (site GGTTCCTCTCC)", "recombinant barcode read abundance (log10)": 0.933}
{"sequence": "CGTTGCCCTTGGGTTCTAACCTGTTGCCT (site CATTGCCCTAG)", "recombinant barcode read abundance (log10)": 0.19}
{"sequence": "ACCGACCCTTGGGTTCTAACCTGTTGCAT (site TAGTTTGCTCG)", "recombinant barcode read abundance (log10)": 0.401}
{"sequence": "TGAAATACTTGGGTTCTAACCTGTTGCCT (site TGAACTACTAG)", "recombinant barcode read abundance (log10)": 0.0246}
{"sequence": "AAGTCGTCTTGGGTTCTAACCTGTTGCCT (site AGGTCGTCTAG)", "recombinant barcode read abundance (log10)": 0.126}
{"sequence": "TCGTGCCCTTGGGTTCTAACCTGTTGCTT (site TCGTGCCCTAA)", "recombinant barcode read abundance (log10)": 0.0384}
{"sequence": "CTCTAGACTTGGGTTCTAACCTGTTGCCA (site CTCTAAACTTG)", "recombinant barcode read abundance (log10)": 0.193}
{"sequence": "AGAAGATCTTGGGTTCTAACCTGTTGCCT (site TACCTTACTCT)", "recombinant barcode read abundance (log10)": 0.0563}
{"sequence": "TCGTACCCTTGGGTTCTAACCTGTTGCGA (site TCGGACCCTTC)", "recombinant barcode read abundance (log10)": 0.0548}
{"sequence": "TCCTAGTCTTGGGTTCTAACCTGTTGCCA (site GCCTAGTCTTG)", "recombinant barcode read abundance (log10)": 0.405}
{"sequence": "TAGTGGTCTTGGGTTCTAACCTGTTGCTA (site TAGTGGTCTTA)", "recombinant barcode read abundance (log10)": 1.01}
{"sequence": "TAGAACTCTTGGGTTCTAACCTGTTGCGT (site TAGAGCTCTAC)", "recombinant barcode read abundance (log10)": 0.119}
{"sequence": "ATTAGGACTTGGGTTCTAACCTGTTGCTG (site ATTAGGACTCT)", "recombinant barcode read abundance (log10)": 1.56}
{"sequence": "TCCCATTCTTGGGTTCTAACCTGTTGCCT (site TCCCATCCTAG)", "recombinant barcode read abundance (log10)": 0.03}
{"sequence": "GATTCTACTTGGGTTCTAACCTGTTGCTT (site GACTCTACTAA)", "recombinant barcode read abundance (log10)": 0.22}
{"sequence": "ACGAAGGCTTGGGTTCTAACCTGTTGCCT (site ACGAAGGCTCG)", "recombinant barcode read abundance (log10)": 0.0407}
{"sequence": "AGGCGTCCTTGGGTTCTAACCTGTTGCCA (site AGGCGTCCTGG)", "recombinant barcode read abundance (log10)": 0.315}
{"sequence": "CCTACGCCTTGGGTTCTAACCTGTTGCCA (site TTCCGAGCTCT)", "recombinant barcode read abundance (log10)": 0}
{"sequence": "GTAACTACTTGGGTTCTAACCTGTTGCAC (site GTAACTACTGT)", "recombinant barcode read abundance (log10)": 0.926}
{"sequence": "TCCTAGTCTTGGGTTCTAACCTGTTGCCA (site TCCTAGTCTTG)", "recombinant barcode read abundance (log10)": 0.137}
{"sequence": "TTAGACCCTTGGGTTCTAACCTGTTGCCT (site CTAGACCCTAG)", "recombinant barcode read abundance (log10)": 1.11}
{"sequence": "GACTGGCCTTGGGTTCTAACCTGTTGCAG (site GACTGGCCTCT)", "recombinant barcode read abundance (log10)": 0.862}
{"sequence": "GCCAAACCTTGGGTTCTAACCTGTTGCCT (site GCCAAACCTAG)", "recombinant barcode read abundance (log10)": 0.0479}
{"sequence": "ACACCCTCTTGGGTTCTAACCTGTTGCAG (site ACACCCTCTCT)", "recombinant barcode read abundance (log10)": 1.79}
{"sequence": "TTGCCGACTTGGGTTCTAACCTGTTGCCT (site TTGCCTACTAG)", "recombinant barcode read abundance (log10)": 0}
{"sequence": "CATGCGACTTGGGTTCTAACCTGTTGCTG (site CATGCTACTGA)", "recombinant barcode read abundance (log10)": 0.351}
{"sequence": "CTAGTCACTTGGGTTCTAACCTGTTGCAC (site CTAGTCACTGT)", "recombinant barcode read abundance (log10)": 2.81}
{"sequence": "CTCGAATCTTGGGTTCTAACCTGTTGCTA (site CTCGAATCTTA)", "recombinant barcode read abundance (log10)": 1.17}
{"sequence": "CGCCCGCCTTGGGTTCTAACCTGTTGCCT (site AGCCCGCCTAG)", "recombinant barcode read abundance (log10)": 0.165}
{"sequence": "ATAGACCCTTGGGTTCTAACCTGTTGCCT (site CTAGACCCTAG)", "recombinant barcode read abundance (log10)": 0.918}
{"sequence": "GCTCCATCTTGGGTTCTAACCTGTTGCCT (site GATCCATCTAG)", "recombinant barcode read abundance (log10)": 0.0768}
{"sequence": "GTTTGTCCTTGGGTTCTAACCTGTTGCTT (site GTTTGGCCTAA)", "recombinant barcode read abundance (log10)": 0.644}
{"sequence": "GTATGACCTTGGGTTCTAACCTGTTGCCT (site GTATGATCTAG)", "recombinant barcode read abundance (log10)": 0.217}
{"sequence": "CGCCCGCCTTGGGTTCTAACCTGTTGCCT (site GGCCCGCCTAG)", "recombinant barcode read abundance (log10)": 0.109}
{"sequence": "TACAGACCTTGGGTTCTAACCTGTTGCCT (site AACAGACCTAG)", "recombinant barcode read abundance (log10)": 0.11}
{"sequence": "TGGTTACCTTGGGTTCTAACCTGTTGCCT (site TGGTTACCTAG)", "recombinant barcode read abundance (log10)": 1.17}
{"sequence": "GTAACCTCTTGGGTTCTAACCTGTTGCCC (site GTAACCTCTTG)", "recombinant barcode read abundance (log10)": 0.128}
{"sequence": "CAGTCTACTTGGGTTCTAACCTGTTGCCT (site CTGTCTACTAG)", "recombinant barcode read abundance (log10)": 0.0878}
{"sequence": "CAACCACCTTGGGTTCTAACCTGTTGCTT (site CAAACACCTAA)", "recombinant barcode read abundance (log10)": 0.142}
{"sequence": "ACGGTCACTTGGGTTCTAACCTGTTGCCG (site ACGGTCACTCG)", "recombinant barcode read abundance (log10)": 0.435}
{"sequence": "AGGCGTACTTGGGTTCTAACCTGTTGCCT (site AGACGTACTAG)", "recombinant barcode read abundance (log10)": 0.0558}
{"sequence": "AAGATACCTTGGGTTCTAACCTGTTGCCT (site AAGATACCTAG)", "recombinant barcode read abundance (log10)": 2.23}
{"sequence": "CCATGAACTTGGGTTCTAACCTGTTGCCA (site CCATGAACTTG)", "recombinant barcode read abundance (log10)": 0.0609}
{"sequence": "CACACGACTTGGGTTCTAACCTGTTGCCT (site CACACGACTAG)", "recombinant barcode read abundance (log10)": 0.99}
